Molecular target: T1, PI3Kα (Homo sapiens, UniProt P42336)
T1 construct: His
T1 sequence (P42336 whole entry): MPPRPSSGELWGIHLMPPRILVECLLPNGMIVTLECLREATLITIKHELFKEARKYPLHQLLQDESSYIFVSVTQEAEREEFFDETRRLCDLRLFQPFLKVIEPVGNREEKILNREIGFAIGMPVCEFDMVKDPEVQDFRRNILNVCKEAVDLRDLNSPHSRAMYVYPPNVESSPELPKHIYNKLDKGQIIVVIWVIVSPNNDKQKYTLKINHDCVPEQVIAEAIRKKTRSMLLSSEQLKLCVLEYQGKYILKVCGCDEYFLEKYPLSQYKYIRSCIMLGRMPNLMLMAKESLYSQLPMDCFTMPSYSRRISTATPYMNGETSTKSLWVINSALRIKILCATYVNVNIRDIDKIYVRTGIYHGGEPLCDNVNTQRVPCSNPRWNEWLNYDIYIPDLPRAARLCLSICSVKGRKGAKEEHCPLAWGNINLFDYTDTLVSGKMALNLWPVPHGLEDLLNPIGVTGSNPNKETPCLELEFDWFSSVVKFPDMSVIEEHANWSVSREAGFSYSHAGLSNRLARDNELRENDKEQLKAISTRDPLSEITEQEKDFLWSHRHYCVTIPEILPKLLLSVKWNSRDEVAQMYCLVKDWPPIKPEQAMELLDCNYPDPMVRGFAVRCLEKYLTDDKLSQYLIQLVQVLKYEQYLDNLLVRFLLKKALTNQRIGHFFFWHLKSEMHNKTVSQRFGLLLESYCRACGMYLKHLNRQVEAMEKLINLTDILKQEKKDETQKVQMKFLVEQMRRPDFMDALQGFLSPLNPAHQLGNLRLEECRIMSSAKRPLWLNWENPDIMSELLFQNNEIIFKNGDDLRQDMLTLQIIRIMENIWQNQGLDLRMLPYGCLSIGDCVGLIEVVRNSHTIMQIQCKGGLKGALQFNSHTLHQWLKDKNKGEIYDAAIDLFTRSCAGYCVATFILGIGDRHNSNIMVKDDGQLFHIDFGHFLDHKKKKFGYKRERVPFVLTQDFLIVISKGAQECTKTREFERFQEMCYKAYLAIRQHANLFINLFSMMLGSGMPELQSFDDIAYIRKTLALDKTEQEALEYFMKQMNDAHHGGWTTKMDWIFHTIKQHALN
T1 sequence (P27986 whole entry partner): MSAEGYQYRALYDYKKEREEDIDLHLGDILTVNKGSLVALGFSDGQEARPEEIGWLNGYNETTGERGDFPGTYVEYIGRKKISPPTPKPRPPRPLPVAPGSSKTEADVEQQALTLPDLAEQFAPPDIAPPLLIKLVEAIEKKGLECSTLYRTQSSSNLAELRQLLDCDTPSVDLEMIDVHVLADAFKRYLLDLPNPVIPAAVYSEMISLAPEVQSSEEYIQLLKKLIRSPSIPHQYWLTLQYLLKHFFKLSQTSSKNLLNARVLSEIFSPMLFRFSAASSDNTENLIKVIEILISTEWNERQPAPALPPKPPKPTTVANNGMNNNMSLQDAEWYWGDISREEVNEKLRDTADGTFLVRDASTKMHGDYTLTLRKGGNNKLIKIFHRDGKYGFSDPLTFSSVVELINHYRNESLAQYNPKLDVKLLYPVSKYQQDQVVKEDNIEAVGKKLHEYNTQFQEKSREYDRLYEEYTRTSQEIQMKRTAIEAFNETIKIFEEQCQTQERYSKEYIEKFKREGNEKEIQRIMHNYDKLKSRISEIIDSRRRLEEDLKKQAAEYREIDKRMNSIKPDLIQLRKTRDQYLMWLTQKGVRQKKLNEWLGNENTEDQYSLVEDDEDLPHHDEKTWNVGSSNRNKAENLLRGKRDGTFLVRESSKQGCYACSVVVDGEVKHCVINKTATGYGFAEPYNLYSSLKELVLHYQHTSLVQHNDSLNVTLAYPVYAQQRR
Assay: PI3K Alpha Leadseeker SPA Assay
Assay type: biochemical
Settings: in at least one experimental run; read-out: IC50 against PI3Kα
Procedure: PI3K Alpha Leadseeker SPA Assay
Compounds of the present invention were tested according to the following assays and found as inhibitors of PI3 kinases, particularly PI3Kα. The exemplified compounds were tested and found active against PI3Kα. The IC50's ranged from about 1 nM to 10 μM.
SPA imaging beads are microspheres containing scintillant which emit light in the red region of the visible spectrum. As a result, these beads are ideally suited to use with a CCD imager such as the Viewlux. The Leadseeker beads used in this system are polystyrene beads that have been coupled with polyethyleneimine. When added to the assay mixture, the beads absorb both the substrate (PIP2) and product (PIP3). Adsorbed P^33-PIP3 will cause an increase in signal, measured as ADUs (analog to digital units). This protocol details the use of the PEI-PS Leadseeker beads for assays using His-p110/p85 PI3K alpha.
Solid compounds are typically plated with 0.1 μl of 100% DMSO in all wells (except column 6 and 18) of a 384-well, flat bottom, low volume plate (Greiner 784075). The compounds are serially diluted (3-fold in 100% DMSO) across the plate from column 1 to column 12 and column 13 to column 24 and leave column 6 and 18 containing only DMSO to yield 11 concentrations for each test compound.
The assay buffer contains MOPS (pH 6.5), CHAPS, and DTT. PI3K alpha and PIP2 (L-alpha-D-myo-Phosphatidylinositol 4,5-bisphosphate [PI(4,5)P2]3-O-phospho linked, D(+)-sn-1,2-di-O-octanoylglyceryl, CellSignals #901) are mixed and incubated in the plate with compound for 30 min prior to starting the reaction with the addition of P^33-ATP and MgCl2 (reagents added using Zoom). Enzyme-free wells (column 18) are typically done to determine the low control. PEI-PS Leadseeker beads in PBS/EDTA/CHAPS are added (by Multidrop) to quench the reaction, and the plates are allowed to incubate for at least one hour (typically overnight) before centrifugation. The signal is determined using a Viewlux detector and is then imported into curve fitting software (Activity Base) for construction of concentration response curves. The percent inhibition of activity is calculated relative to high controls (C1, 0.1 μl DMSO in column 6, rows A-P)) and low controls (C2, 5 μl of 40 uM PIP2 in buffer in column 18, rows A-P) using, 100*(1-(U1-C2)/(C1-C2)). The concentration of test compound yielding 50% inhibition is determined using the equation, y=((Vmax*x)/(K+x))+Y2, where “K” is equal to the IC50. The IC50 values are converted to pIC50 values, i.e., −log IC50 in Molar concentration.
Work on CC1=Nc2ccc(-c3ccc4nccc(-c5ccncc5)c4c3)cc2S(=O)(=O)N1 [Example 154] yielded an IC50 of 316 nM.
With NC(=O)Cn1cc(-c2ccnc3ccc(-c4cncc(S(=O)(=O)Nc5ccc(F)cc5F)c4)cc23)cn1 [Example 263] the IC50 was 7.9 nM.
c1cc(-c2ccnc3ccc(-c4ccc5[nH]ncc5c4)cc23)ccn1 [Example 156] showed an IC50 of 79 nM.
COc1ncc(-c2ccc3nccc(C4CCCC4)c3c2)cc1NS(=O)(=O)c1ccccc1 [Example 289] gave an IC50 of 2.5 nM.
Work on O=S(=O)(Nc1cc(-c2ccc3nccc(-c4ccncc4)c3c2)c[n+]([O-])c1Cl)c1ccccc1 [Example 249] yielded an IC50 of 1.6 nM.
In the case of c1cc(-c2ccnc3ccc(-c4nc5ncncc5[nH]4)cc23)ccn1 [Example 224], the IC50 is reported as 1000 nM.
Work on Cc1ccccc1S(=O)(=O)Nc1cc(-c2ccc3nccc(-c4ccncc4)c3c2)cnc1Cl [Example 252] yielded an IC50 of 0.8 nM.

Molecular target: CK2 protein kinase (Homo sapiens, UniProt P68400)
Sequence (P68400 whole entry): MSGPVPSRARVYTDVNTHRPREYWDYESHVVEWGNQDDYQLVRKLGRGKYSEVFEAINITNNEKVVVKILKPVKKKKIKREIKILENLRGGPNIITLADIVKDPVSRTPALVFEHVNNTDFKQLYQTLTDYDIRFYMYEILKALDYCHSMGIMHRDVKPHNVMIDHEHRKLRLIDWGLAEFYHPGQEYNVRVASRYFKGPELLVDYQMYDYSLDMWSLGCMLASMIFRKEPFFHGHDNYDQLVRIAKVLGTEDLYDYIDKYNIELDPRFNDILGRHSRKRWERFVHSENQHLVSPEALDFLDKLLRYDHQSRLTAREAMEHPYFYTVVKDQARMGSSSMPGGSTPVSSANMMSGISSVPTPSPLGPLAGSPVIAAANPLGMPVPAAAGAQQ
Assay: not given
Settings: cited from earlier work
For O=c1cc(N2CCOCC2)oc2c(-c3ccccc3)cccc12 [LY294002], the IC50 is listed as 5 to 10 µM.

— patent US20100168100A1, “QUINOLINE DERIVATIVES AS P13 KINASE INHIBITORS” (SMITHKLINE BEECHAM CORPORATION, priority 2007, published 2010)
